Data reported in ChEMBL document CHEMBL1201862, “PubChem BioAssay data set” (2004).
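Method: 48-hour compound exposure of cells in 96-well plates, five concentrations, linear interpolation of endpoints. Here, GI50 denotes the concentration required for 50% inhibition of growth.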 Active and inactive are the calls of the source. Rule as the data show it: active = GI50 up to about 1.1 µM and inactive = higher.

Tests used:
Assay in all cases: growth of human tumour cells (NCI), 48 h
DMS-273 = test system: DMS-273
RXF 631 = test system: RXF 631
M19-MEL = test system: M19-MEL
XF498 = test system: XF498
KM-20L2 = test system: KM-20L2
SNB-78 = test system: SNB-78
HOP-18 = test system: HOP-18
DLD-1 = test system: DLD-1
LXFL 529 = test system: LXFL 529

Measured: GI50

Cc1ccnc(NS(=O)(=O)c2ccc(NC3=CC(=O)C(=O)c4ccccc43)cc2)n1
inactive: DMS-273 > 100 µM | RXF 631 > 100 µM | M19-MEL > 100 µM | XF498 > 100 µM | KM-20L2 > 100 µM | SNB-78 > 100 µM | HOP-18 > 100 µM | DLD-1 > 100 µM | LXFL 529 > 100 µM

CCCC(OCC)(OCC)OCC
inactive: DMS-273 52.1 µM | RXF 631 > 100 µM | M19-MEL > 100 µM | XF498 > 100 µM | KM-20L2 > 100 µM | SNB-78 > 100 µM | HOP-18 > 100 µM | DLD-1 > 100 µM | LXFL 529 > 100 µM

CC1=Nc2c(ccc3c2C(=O)c2ccccc2C3=O)NC(c2cccc3c2CCC3)C1 (configuration not stated)
inactive: DMS-273 > 73.6 µM | RXF 631 70.1 µM | M19-MEL > 43.4 µM | XF498 > 100 µM | KM-20L2 > 100 µM | SNB-78 > 100 µM | HOP-18 > 67.3 µM | DLD-1 46.1 µM | LXFL 529 > 100 µM
